Measurements published in patent US11285142B2, “Compositions and methods for identifying and treating dystonia disorders” (DUKE UNIVERSITY, priority 2015, dated 2022).
“Also recorded” adds a separate entry of the source. Structures can show the parent of a compound that is named as a salt. Where two headings read alike, the source gives them in different places.

Legend:
[1] = system: delta-E Torsin1a localization in Flp-In T-REx 293 cells expressing EGFP-delta-E Torsin1a; assay: delta-E Torsin1a mis-localization assay (high-content imaging, % cells with EGFP puncta); type: cell-based, human; settings: for ΔE TorsinA Mislocalization Assay Localization EC50 / EC50 / Emax: Table 5; for effect on delta-E Torsin1a localization (in words): delta-E cell line, dose response; for % pathology CC-v2 (dose response Curve Class) / AC50 / % pathology Max Resp / % pathology Efficacy: Table 6; for AC50: AC = Active Concentration, read-out: % pathology AC50; for % pathology Max Resp / % pathology Efficacy: normalized scale; for % pathology Max Resp: WT-TorsinA line 0%, DYT1 mutant line 100% pathology; for % pathology Efficacy: −100% = WT TorsinA phenotype, 0% = Mutant TorsinA phenotype; for EC50: read-out: ΔE TorsinA Mislocalization Assay Localization EC50; for Emax: read-out: ΔE TorsinA Mislocalization Assay Localization Max Efficacy
Description: To limit variation in expression levels associated with random integration or transient expression, single copies of either WT or delta-E human TOR1A cDNAs with N-terminal EGFP fusions were inserted at the FRT site in Flp-In™ T-Rex™ 293 cells (Thermo Fisher Scientific #R780-07) via flippase recombinase-mediated cassette exchange according to the manufacturer's recommended protocols.
The cells were maintained at 37° C./5% CO2. All experiments were performed on cells with fewer than 5 passages.
Torsin1a expression was also controlled by tetracycline induction to avoid selective pressure modifying the cellular phenotypes. […] The mutant phenotype was measured as the percentage of cells with one or more EGFP puncta using automated high-content imaging analysis (see infra).
The image analysis algorithm was developed using the Cellomics ArrayScan V CompartmentAnalysisV2 protocol. Hoechst's nuclear staining (Ch1: excitation 350 nm; emission 461 nm) was used for focusing and for cell identification by nuclear size, shape, and intensity. […] Detected cells were gated according to nuclear area, length-to-width ratio, and perimeter-to-area ratio. For the purpose of analysis, cell bodies were defined by a radius of 10 μm from the outer edge of the defined nucleus. Overlapping cells were automatically segmented according to the Cellomics ArrayScanV CompartmentAnalysisV2 object segmentation feature. EGFP fluorescence (Ch2: excitation 488 nm; emission 509 nm) was used for puncta detection. […] Torsin1a puncta were identified using the spot detection feature of the Compartmental AnalysisV2 protocol. The percentage of cells containing one or more puncta was used as the primary metric in this assay.
(§1) In order to test this model directly, the delta-E Torsin1a cell line was treated with compounds targeting the eIF2-alpha signaling pathway (FIG. 2). […] The following day, serial drug dilutions were prepared at 2× final concentration in assay media containing 10 μg/mL tetracycline and 30 μL of the drug/tetracycline mixture was added to the appropriate wells, while control wells received 30 μL of assay media alone or assay media+10 μg/mL tetracycline (final tetracycline concentration for all wells except negative controls: 5 μg/mL). Cells were then incubated at 37° C./5% CO^2 for 48 hours and fixed, permeabilized, Hoechst stained, and imaged as described above. The range of the Torsin1a localization effect was normalized to the percentage of cells with puncta in vehicle-treated delta-E cell line as the maximum and that in WT cell line as the minimum (FIG. 2, panels c-h). Cell count and EGFP-Torsin1a expression were normalized to their respective values in the vehicle-treated delta-E cell line as the maximum. All dose response data are the average of 4 independent experiments per dose. Untreated control data used for normalization are the average of 24 independent experiments.

[2] = system: Flp-In T-REx 293 cells expressing delta-E Torsin1a; assay: Cytotoxicity (cell count, cellular morphology) in the Torsin1a assay cell line; type: cell-based, human; settings: for ΔE TorsinA Mislocalization Assay Cytotoxicity EC50: Table 5; for Cytotox CC-v2 (dose response Curve Class) / Cytotox Efficacy / Cytotox Max Resp / AC50: Table 6; for toxicity (cell count, cellular morphology; in words): at effective concentrations; for AC50: read-out: Cytotox AC50
Description: as §1
(§2) Efficacy is calculated as the magnitude of the pathology correction relative to the mutant Torsin1a pathology. For example an efficacy=−100% would be equivalent to the WT TorsinA phenotype, and 0% would be equivalent to the Mutant TorsinA phenotype. CCv2 refers to the dose response Curve Class annotation, and AC refers to Active Concentration.

luciferase secretion = assay: C.Luc. Secretion Assay (luciferase secretion, secretory deficits); type: cell-based; settings: for C.Luc. Secretion Assay Secretion EC50 / EC50 / Emax: Table 5; for Emax: read-out: C.Luc. Secretion Assay Secretion Max Efficacy; for correction of secretory deficits (in words): orthogonal assays
Description: We tested each shRNA for its ability to rescue a previously described defect in luciferase secretion. Chen, P. et al. (2010) Hum. Mol. Genet. 19, 3502-15; Cao, S. et al. (2010) Dis. Model. Mech. 3, 386-96; Barrows, N. J., et al., (2010)J. Biomol. Screen. 15, 735-47.) DYT1 patient data were obtained from 4 independent patient-derived lines and WT data (black bar) from 3 normal healthy control lines. Each line was tested in 5 independent experiments that included 4 technical replicates each (with the exception of SCD data from 3 independent experiments).
(Cao, S. et al. (2010) Dis. Model. Mech. 3, 386-96.) Subsequent testing of additional HIV protease inhibitors supported the activity of this class of compounds and generated favorable structure-activity relationship (SAR) data from which to design improved compounds (Tables 5 and 6). The results with a subset of compounds were also observed in a Luciferase secretion assay (Tables 5 and 6).

[3] = Cytotoxicity (cell count, cellular morphology) in the Torsin1a assay cell line; type: cell-based, human; settings: human; for AC50: Table 6, read-out: Cytotox AC50; for EC50 at 48 h: Flp-In T-REx 293 cells inducibly expressing delta-E Torsin1a, Table 5, read-out: ΔE TorsinA Mislocalization Assay Cytotoxicity EC50
Description: as §1, §2

## CC(C)CN(C[C@@H](O)[C@H](Cc1ccccc1)NC(=O)O[C@H]1CCOC1)S(=O)(=O)c1ccc(N)cc1 [Amprenavir]
[1]
  ΔE TorsinA Mislocalization Assay Localization EC50: No Activity
[2]
  ΔE TorsinA Mislocalization Assay Cytotoxicity EC50: None
  Cytotox CC-v2 (dose response Curve Class): 4
Luciferase secretion
  C.Luc. Secretion Assay Secretion EC50: No Activity

## COC(=O)N[C@H](C(=O)N[C@@H](Cc1ccccc1)[C@@H](O)CN(Cc1ccc(-c2ccccn2)cc1)NC(=O)[C@@H](NC(=O)OC)C(C)(C)C)C(C)(C)C [Atazanavir]
[1]
  ΔE TorsinA Mislocalization Assay Localization EC50: No Activity
[2]
  ΔE TorsinA Mislocalization Assay Cytotoxicity EC50: None
  Cytotox CC-v2 (dose response Curve Class): 4
Luciferase secretion
  C.Luc. Secretion Assay Secretion EC50: No Activity

## CCN(CC)CCC(=O)N1N=C(c2c(-c3ccccc3)c3cc(Br)ccc3[nH]c2=O)CC1c1ccc(Br)cc1 (stereo not shown) [CCT020312]
[1]
  effect on delta-E Torsin1a localization (in words): dose-dependent reduction
[2]
  toxicity (cell count, cellular morphology; in words): highly toxic at effective concentrations

## C[C@H](NC(=O)Cc1cc(F)cc(F)c1)C(=O)N[C@H](C(=O)OC(C)(C)C)c1ccccc1 [DAPT]
[1]
  effect on delta-E Torsin1a localization (in words): no effect

## CC(C)CN(C[C@@H](O)[C@H](Cc1ccccc1)NC(=O)O[C@H]1CO[C@H]2OCC[C@H]21)S(=O)(=O)c1ccc(N)cc1 [Darunavir]
[1]
  ΔE TorsinA Mislocalization Assay Localization EC50: No Activity
Luciferase secretion
  C.Luc. Secretion Assay Secretion EC50: No Activity

## Cc1cccc(C)c1OCC(=O)NC(CCC(Cc1ccccc1)NC(=O)C(C(C)C)N1CCCNC1=O)Cc1ccccc1 (stereo not shown) [Des-hydroxy Lopinavir]
[1]
  % pathology CC-v2 (dose response Curve Class): −3
  AC50: 8.33 µM
  % pathology Max Resp: −33.96%
  % pathology Efficacy: −82.44%
[2]
  Cytotox CC-v2 (dose response Curve Class): −2.2
  Cytotox Efficacy: −77.66
  Cytotox Max Resp: −66.67
  AC50: 20.9 µM

## CC(C)(C)NC(=O)[C@@H]1CN(Cc2cccnc2)CCN1C[C@@H](O)C[C@@H](Cc1ccccc1)C(=O)N[C@H]1c2ccccc2C[C@H]1O [Indinavir sulfate]
[1]; Homo sapiens, Flp-In-T-REx-293
  AC50: 29.6 µM
[1]
  % pathology Max Resp: −97.76%
  % pathology Efficacy: −114.60%
[3]
  AC50: 37.2 µM
[2]
  Cytotox CC-v2 (dose response Curve Class): −3
  Cytotox Efficacy: −80.64
  Cytotox Max Resp: −67.80

## CC(C)(C)NC(=O)[C@@H]1CN(Cc2cccnc2)CCN1C[C@@H](O)C[C@@H](Cc1ccccc1)C(=O)N[C@H]1c2ccccc2C[C@H]1O [Indinavir, indinavir]
[1]; Homo sapiens, Flp-In-T-REx-293
  EC50: 26.5 µM
  Emax: 114%
[1]
  effect on delta-E Torsin1a localization (in words): corrected TorsinA localization in a dose-dependent fashion
[3]
  EC50 at 48 h: 35.2 µM
[2]
  toxicity (cell count, cellular morphology; in words): no cellular toxicity observed at effective doses
Luciferase secretion
  C.Luc. Secretion Assay Secretion EC50: No Activity

## CS(=O)(=O)O.Cc1c(O)cccc1C(=O)N[C@@H](CSc1ccccc1)[C@H](O)CN1C[C@H]2CCCC[C@H]2C[C@H]1C(=O)NC(C)(C)C.O [Nelfinavir mesylae hydrate]
[1]
  % pathology CC-v2 (dose response Curve Class): −1.1
  AC50: 2.7 µM
  % pathology Max Resp: −92.46%
  % pathology Efficacy: −75.26%
[2]
  Cytotox CC-v2 (dose response Curve Class): −1.1
  Cytotox Efficacy: −98.05
  Cytotox Max Resp: −95.64
  AC50: 6.05 µM

## Cc1c(O)cccc1C(=O)N[C@@H](CSc1ccccc1)[C@H](O)CN1C[C@H]2CCCC[C@H]2C[C@H]1C(=O)NC(C)(C)C [Nelfinavir, nelfinavir]
[1]; Homo sapiens, Flp-In-T-REx-293
  EC50: 3.49 µM
  Emax: 80%
[1]
  effect on delta-E Torsin1a localization (in words): corrected TorsinA localization in a dose-dependent fashion
[3]
  EC50 at 48 h: 6.05 µM
[2]
  toxicity (cell count, cellular morphology; in words): no cellular toxicity observed at effective doses
Luciferase secretion
  C.Luc. Secretion Assay Secretion EC50: No Activity

## CC(C)c1nc(CN(C)C(=O)N[C@H](C(=O)N[C@@H](Cc2ccccc2)C[C@H](O)[C@H](Cc2ccccc2)NC(=O)OCc2cncs2)C(C)C)cs1 [Ritonavir, ritonavir]
[1]; Homo sapiens, Flp-In-T-REx-293
  EC50: 4.11 µM
  Emax: 87%
  AC50: 2.96 µM
[1]
  % pathology Max Resp: −82.60%
  % pathology Efficacy: −92.96%
  effect on delta-E Torsin1a localization (in words): corrected TorsinA localization in a dose-dependent fashion; also recorded: restored
[2]
  Cytotox CC-v2 (dose response Curve Class): 4
  toxicity (cell count, cellular morphology; in words): no cellular toxicity observed at effective doses
Luciferase secretion
  EC50: 3.72 µM
  Emax: 49%
  correction of secretory deficits (in words): corrected secretory deficits

## CC(C)(C)NC(=O)[C@@H]1C[C@@H]2CCCC[C@@H]2CN1C[C@@H](O)[C@H](Cc1ccccc1)NC(=O)[C@H](CC(N)=O)NC(=O)c1ccc2ccccc2n1 [Saquinavir mesylate]
[1]; Homo sapiens, Flp-In-T-REx-293
  AC50: 8.33 µM
[1]
  % pathology Max Resp: −84.62%
  % pathology Efficacy: −85.98%
[3]
  AC50: 20.9 µM

## CC(C)(C)NC(=O)[C@@H]1C[C@@H]2CCCC[C@@H]2CN1C[C@@H](O)[C@H](Cc1ccccc1)NC(=O)[C@H](CC(N)=O)NC(=O)c1ccc2ccccc2n1 [Saquinavir, saquinavir]
[1]; Homo sapiens, Flp-In-T-REx-293
  EC50: 9.41 µM
  Emax: 88%
[1]
  effect on delta-E Torsin1a localization (in words): corrected TorsinA localization in a dose-dependent fashion
[3]
  EC50 at 48 h: 23.6 µM
Luciferase secretion
  EC50: 8.09 µM
  Emax: 34%
  correction of secretory deficits (in words): corrected secretory deficits

## Cc1c(O)cccc1C(=O)N[C@@H](CSc1ccccc1)[C@H](O)CN1C[C@H]2CCCC[C@H]2C[C@H]1C(=O)NC(C)(C)C [Viracept]
[1]; Homo sapiens, Flp-In-T-REx-293
  AC50: 5.26 µM
[1]
  % pathology Max Resp: −94.06%
  % pathology Efficacy: −119.39%
[3]
  AC50: 10.5 µM
[2]
  Cytotox CC-v2 (dose response Curve Class): −1.1
  Cytotox Efficacy: −106.32
  Cytotox Max Resp: −97.72

## N=C(N)N/N=C/c1c(Cl)cccc1Cl [guanabenz]
[1]
  effect on delta-E Torsin1a localization (in words): no effect

## CCCC(CCC)C(=O)O [valproic acid]
[1]
  effect on delta-E Torsin1a localization (in words): no effect
